How the values were obtained:
[1] = tested on: B16F10 mouse melanoma cells; test: Transwell (matrigel-coated) migration assay for metastasis inhibition; type: cell-based; details: 1 μg/ml DMGF, 4 hours, 8 μm film coated with matrigel, compared to the group without DMGF (100%)
Description: B16F10 mouse melanoma cells were maintained in 1% antibiotics of Dulbecco's modified Eagle's medium (DMEM; Gibco/Invitrogen, Carlsbad, Calif., USA) supplemented with heat-inactivated 10% fetal bovine serum (Gibco/Invitrogen, Carlsbad, Calif., USA). Antibiotic were preferably penicillin/streptomycin/amphotericin. Cell suspension (3×10^4) were treated with or without 1 μg/ml DMGF in the upper well of a transwell plate. The well without DMGF was used as a control group of experiment. DMEM cell culture medium was added into the upper and lower wells, and the lower well was further added fetal bovine serum, and then maintained in the incubator under 37° C. In other embodiment, B16F10 cell suspension was allowed to incubate in the 4 or 6 upper wells of transwell plate to comduct second repeat or duplicate tests, which is not for limited sense of present invention.
The bottom side of the upper well, which is between the upper well and the lower well, includes a transparent film. The present example applied 8 μm (coated with matrigel) transparent films for tumor metastasis test. […] The cells on the top of the filter were removed with a cotton swab and migrated cells on the underside were fixed with methanol, stained with 50 μg/ml propidium iodide and counted with a fluorescence microscope. […]

[2] = tested on: Matrix metalloproteases-2 (MMP2) expression in B16F10 cells; test: MMP2 RNA expression by real-time PCR; type: cell-based, mouse; details: 1 μg/ml DMGF, 0 hour group defined as 1 times
Description: Culturing condition of B16F10 cells with tissue culture techniques is the same as example 2. B16F10 cell suspension was incubated in at least three plates, two of which were added biflavonoid DMGF (final concentration 1 μg/ml) and set back to 37° C. incubator and incubating for 12 and 24 hours, respectively. The culture medium and additional compound were sucked, and then the plate was washed with PBS. B16F10 cells were collected with trypsin-EDTA. And the third well was processes without DMGF, colleting B16F10 cells according to the above-mentioned method. Then total B16F10 cellular RNA was extracted with TRIzol (Invitrogen Life Technologies, Carlsbad, Calif., USA) and reverse-transcribed into cDNA using the extracted RNA template. The cDNA was further a template for real-time polymerase chain reaction (Real-time PCR). The forward primer and the reverse primer of MMP2 were [NT] and [NT], repectively, thus quantified the MMP2 expression level in the above-mentioned time period of control group and experiment group of the present example. In detail, reverse-transcription PCR was treated with SuperScript First-Strand system (Invitrogen Life Technologies). […] While the MMP2 expression level of “0 hour” group is defined as 1 times, the MMP2 expression level of “12 hours” group and “24 hours” group are both calculated according to the “0 hour” group.

[3] = tested on: SVEC4-10 mouse vascular endothelial cells; test: Polymerization of fibrous actin (Phallotoxin/DAPI staining); type: cell-based; details: SVEC4-10 cells, 16 ng/ml VEGF, 1 μg/ml DMGF, 3 to 4 hours
Description: Tissue culture technology for culturing SVEC4-10 mouse vascular endothelial cells can be referred to the culturing method of B16F10 in example 2, and is not repeated here. SVEC4-10 cell suspension (3×10^4) were incubated in at least two plates and treated with 16 ng/ml VEGF (Upstate Inc., Lake Placid, N.Y., USA) medium in the two 96-well plate, and one of the plate was further added with 1 μg/ml DMGF as an experiment group. After adding the culture medium and the above-mentioned compound, SVEC4-10 cells were incubated in 37° C. incubator for 3 to 4 hours and then dyed with diamidino-phenyl-indole (DAPI) and Phallotoxin, respectively. Diamidino-phenyl-indole can be combined with double-stranded DNA to label the position of nucleus. Phallotoxin capable of combining with fibrous actin is often used as the dye for observing the polymerization of fibrous actin. After dyeing, the polymerization of fibrous actin was observed under 40 magnification microscopic lens.
“A” (filaments or spot) in FIG.3 marks the structure of fibrous actin, and “B” (circle) in FIG. 3 marks the position of nucleus. […] Polymerization of fibrous actin is correlated with cell migration in which polymerization of fibrous actin happens. Cell migration is the early step of tumor metastasis.

[4] = tested on: B16F10 cells; test: Anti-metastatic activity in mice bearing B16F10 tumors (tumor volume); type: in vivo; details: C57BL/6 mice with B16F10 tumors, 10 mg/kg and 50 mg/kg DMGF injected once every 2 to 3 days
Description: At least 3 8-week-old C57BL/6 mice (female) were i.v. injected with 1×10^6 B16F10 cells. Mice bearing tumors with more than 30 mm^3 were injected with PBS, 10 mg/kg DMGF and 50 mg/kg DMGF once every 2 to 3 days. […] That is, with reference to the result of example 5, pharmaceutical composition with DMGF indeed inhibits tumor cell migration, thus inhibiting tumor metastasis.

[5] = tested on: TNF-α; test: LPS-induced TNF-α secretion by mouse splenocytes (ELISA); type: cell-based; details: 1 μg/ml LPS, 1.25 μg/ml DMGF, 72 hours; group without DMGF up to 200 pg/ml
Description: 1×10^6 mouse splenocyte suspension was seeded in 24-well culture plate supplemented with 1 μg/ml lipopolysaccharide (LPS) for inducing the immune cells of mouse splenocyte secreting TNF-α, and 0, 0.3125, 0.625, 1.25 μg/ml DMGF to each group. The mouse splenocyte were further incubated in 37° C. incubator for 72 hours. The culture medium was collected and tested for TNF-α concentration by ELISA kit for detecting TNF-α.
With the use of increased DMGF dose level, the lower the TNF-α concentration. For example, mouse splenocyte treated with 1.25 μg/ml DMGF secreted TNF-α concentration fell to 60 pg/ml. With reference to the result of example 6, pharmaceutical composition with DMGF has the ability to inhibit immune cells secreting TNF-α to inhibit inflammation. Since inflammation is related to improving angiogenesis and invasion, migration or other pathological effects of tumor cells, pharmaceutical composition with DMGF has the ability to inhibit inflammation, thus inhibiting tumor metastasis.

[6] = tested on: Aspergillus flavus; details: cited from earlier work

Structure (SMILES): COc1cc2oc(-c3ccc(O)cc3)cc(=O)c2c(O)c1-c1c(OC)cc(O)c2c(=O)cc(-c3ccc(O)cc3)oc12 [DMGF, 7,7″-Dimethoxyagastisflavone]
- reduction in the capacity of B16F10 cells to migrate through the membrane of transwell chambers [1]: about 65%
- MMP2 RNA expression level relative to 0 hour group ([2]; 12 hours): 0.5 times
- MMP2 RNA expression level relative to 0 hour group ([2]; 24 hours): 0.3 times
- polymerization of fibrous actin [3]: multiple dots without polymerization of fibrous actin
- tumor volume versus PBS-treated mouse [4]: significantly smaller
- TNF-α concentration secreted by mouse splenocyte [5]: 60 pg/mL
- inhibition of aflatoxin secretion [6]: inhibiting Aspergillus flavus secreting aflatoxin

Reference: patent publication US20150328183A1, “PHARMACEUTICAL COMPOSITION AND USE FOR APPLYING 7,7''-DIMETHOXYAGASTISFLAVONE IN INHIBITING TUMOR METASTASIS” (NATIONAL CHIAO TUNG UNIVERSITY, priority 2014, published 2015)
